# Experimental data from patent US10064975B2, “Method for coating skin abrasion, laceration, burn or oedema after surgery” (Lilac Laboratory Co., Ltd., priority 2014, dated 2018).
# Experiment: pH
# Assay type: physicochemical
# Details: less affected by the concentration
# Description: According to the present invention, an active ingredient, aluminium chloride hydrate, is preferably used at the practical range of 0.005% to 20% by weight in view of the strong acidity thereof and tissue irritating nature. The pH of aluminium chloride is less affected by the concentration and is as low as around pH 1.9. Aluminium chloride has strong tissue irritating nature, and thus is more preferably adjusted to pH of 2.8 to 6.0 in practical use.
# In the present Example, in order to reduce irritating nature at affected areas due to the acidity of aluminium chloride, 3.0% of the 10% sodium hydroxide solution was added to neutralise, the produced precipitate was removed by filtration and pH was adjusted to 3.9. […] Therefore, the 70% ethanol preparation was added as a fungicide.
# In the present Example, in order to reduce irritating nature at affected areas due to the acidity of aluminium chloride, the solution was neutralised with sodium hydroxide and adjusted to pH 3.5, and the precipitate was removed by filtration.
compound,measurement,value
[Cl][Al]([Cl])[Cl] [aluminium chloride],pH of aluminium chloride,~1.9
